# Source: patent US20220177891A1, “HIPK INHIBITORS AND METHODS OF USE THEREOF” (Board of Regents, The University of Texas System, priority 2019, published 2022)
# Tests used:
# HIPK4 [1] = molecular target: T1, HIPK4 (Homo sapiens, UniProt Q8NE63); assay: HIPK4 kinase inhibition by VIB-MDA compounds (FIG. 5, 6); type: biochemical; conditions: for potency and specificity for HIPK4: Table 1, FIG. 5
# T1 sequence (Q8NE63 1-616): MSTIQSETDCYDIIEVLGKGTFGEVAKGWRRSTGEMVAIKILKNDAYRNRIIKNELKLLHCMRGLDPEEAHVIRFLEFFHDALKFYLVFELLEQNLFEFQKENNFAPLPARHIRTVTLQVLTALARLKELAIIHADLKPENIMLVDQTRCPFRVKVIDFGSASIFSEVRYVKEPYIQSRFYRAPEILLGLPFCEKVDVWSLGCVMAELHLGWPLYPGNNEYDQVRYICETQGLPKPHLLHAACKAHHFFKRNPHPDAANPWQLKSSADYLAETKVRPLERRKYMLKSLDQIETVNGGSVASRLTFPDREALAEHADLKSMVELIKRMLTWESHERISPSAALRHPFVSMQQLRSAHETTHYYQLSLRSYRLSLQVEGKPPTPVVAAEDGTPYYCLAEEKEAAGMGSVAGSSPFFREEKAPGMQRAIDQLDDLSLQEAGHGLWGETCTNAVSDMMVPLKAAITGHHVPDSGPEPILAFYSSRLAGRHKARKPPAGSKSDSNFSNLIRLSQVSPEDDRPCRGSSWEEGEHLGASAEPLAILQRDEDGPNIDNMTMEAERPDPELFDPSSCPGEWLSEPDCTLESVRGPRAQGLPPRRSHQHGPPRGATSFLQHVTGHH
# [2] = tested on: MDA-MB-231 cells overexpressing HIPK4; assay: Transwell migration of HIPK4-overexpressing MDA-MB-231 cells (FIG. 11A); type: cell-based, human; conditions: MDA-MB-231 cells overexpressing HIPK4, FIG. 11A
# Method: The in vitro migration and invasion assay was carried out using transwell chamber. Briefly, 0.2-2.0×10^5 cells/ml cells were suspended in serum-free medium with 5% bovine serum albumin and then were placed in the upper compartment, and medium with 5% fetal bovine serum was added in the lower compartment. Following incubation in cell culture incubator for 6-32 h, non-migratory and noninvasive cells on the upper surface were gently removed by a cotton swab. The cells on the bottom of membrane were stained with cell stain solution at room temperature for 10 min. Images of the invading cells were taken with at least three individual fields per chamber by a fluorescent inverted microscope (Olympus IX81 Motorized Inverted Microscope, Japan). The chambers were transferred to an empty well, and 200 μL of Extraction Solution was added to each well. After incubating 10 minutes on an orbital shaker, 100 μL of solution was transferred from each well to a 96-well microtiter plate for measurement under OD 560 nm in a plate reader.
# (§1) Cells were plated into 6-well plate and grown for 1-2 days until reaching 70-80% confluence. Transfection of cells with HIPK4 cDNA was performed utilizing FuGENE® HD Transfection reagent. An amount of 2.5 μg of DNA and 7.5 μL of FuGENE® HD reagent were separately pipeted into 140 μL opti-MEM medium; incubate the FuGENE® HD transfection reagent/DNA mixture for 10-15 minutes at room temperature. Then the mixture was applied onto cells for 7 h in cell culture incubator. The transfection was stopped by replacing medium with complete medium. After 48 h, cells were harvest for further analysis.
# HIPK4 [3] = molecular target: T1, HIPK4; assay: Western blot of HIPK4 protein level with VIB-MDA compounds (FIG. 9); type: cell-based; set-up: endogenous in cells; context is GI101A and derivative cell lines
# Method: (§2) Briefly, desired cells were harvested and lysed. The protein concentration in the lysates was quantified using the Bradford method with bovine serum albumin as standard. An equal amount of protein of 49 μg was separated by electrophoresis on SDS-polyacrylamide gels and transferred to PVDF membranes. After blocking with 5% nonfat milk, the membranes were incubated with the primary antibodies overnight at the following dilution: HIPK4 (1:500) and β-actin (1:20000). Subsequently, the membranes were incubated with appropriate secondary antibodies. The immunoreactive bands were visualized using enhanced chemiluminescence, as recommended by the manufacturer.
# HIPK and FAK/pFAK = assay: Western blot of HIPK4-overexpressing triple negative breast cancer cells (FIG. 11B); type: cell-based, human
# Method: as §1, §2
# DDR2 (Tyro10) = molecular target: T2, DDR2 (Tyro10) (Homo sapiens, UniProt Q16832); assay: DDR2 kinase inhibition by VIB-MDA compounds (FIG. 5, 6B); type: biochemical
# T2 sequence (Q16832 22-855): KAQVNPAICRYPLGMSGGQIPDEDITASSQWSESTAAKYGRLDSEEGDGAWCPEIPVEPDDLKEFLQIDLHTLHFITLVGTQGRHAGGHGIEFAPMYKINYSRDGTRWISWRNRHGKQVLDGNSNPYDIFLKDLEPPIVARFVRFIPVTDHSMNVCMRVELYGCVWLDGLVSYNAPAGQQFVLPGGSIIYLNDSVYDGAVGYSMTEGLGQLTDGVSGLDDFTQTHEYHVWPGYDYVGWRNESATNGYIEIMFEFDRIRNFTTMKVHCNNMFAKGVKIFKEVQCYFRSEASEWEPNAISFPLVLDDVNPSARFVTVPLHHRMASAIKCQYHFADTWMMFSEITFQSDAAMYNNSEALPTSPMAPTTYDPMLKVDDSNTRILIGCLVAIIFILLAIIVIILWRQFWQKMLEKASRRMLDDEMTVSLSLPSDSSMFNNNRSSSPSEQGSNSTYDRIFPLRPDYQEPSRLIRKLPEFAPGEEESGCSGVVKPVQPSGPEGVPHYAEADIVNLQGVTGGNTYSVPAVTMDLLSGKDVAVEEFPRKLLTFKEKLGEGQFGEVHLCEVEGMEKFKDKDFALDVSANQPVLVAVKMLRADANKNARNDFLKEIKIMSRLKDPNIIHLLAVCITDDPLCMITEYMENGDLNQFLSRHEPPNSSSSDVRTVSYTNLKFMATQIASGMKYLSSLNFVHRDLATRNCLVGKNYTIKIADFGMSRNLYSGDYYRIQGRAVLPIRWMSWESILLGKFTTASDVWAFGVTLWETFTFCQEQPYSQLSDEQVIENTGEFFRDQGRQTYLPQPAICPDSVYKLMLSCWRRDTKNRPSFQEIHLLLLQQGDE
# Tyro3 = molecular target: T3, Tyro3 (Homo sapiens, UniProt Q06418); assay: Tyro3 kinase inhibition (FIG. 5); type: biochemical
# T3 sequence (Q06418 41-890): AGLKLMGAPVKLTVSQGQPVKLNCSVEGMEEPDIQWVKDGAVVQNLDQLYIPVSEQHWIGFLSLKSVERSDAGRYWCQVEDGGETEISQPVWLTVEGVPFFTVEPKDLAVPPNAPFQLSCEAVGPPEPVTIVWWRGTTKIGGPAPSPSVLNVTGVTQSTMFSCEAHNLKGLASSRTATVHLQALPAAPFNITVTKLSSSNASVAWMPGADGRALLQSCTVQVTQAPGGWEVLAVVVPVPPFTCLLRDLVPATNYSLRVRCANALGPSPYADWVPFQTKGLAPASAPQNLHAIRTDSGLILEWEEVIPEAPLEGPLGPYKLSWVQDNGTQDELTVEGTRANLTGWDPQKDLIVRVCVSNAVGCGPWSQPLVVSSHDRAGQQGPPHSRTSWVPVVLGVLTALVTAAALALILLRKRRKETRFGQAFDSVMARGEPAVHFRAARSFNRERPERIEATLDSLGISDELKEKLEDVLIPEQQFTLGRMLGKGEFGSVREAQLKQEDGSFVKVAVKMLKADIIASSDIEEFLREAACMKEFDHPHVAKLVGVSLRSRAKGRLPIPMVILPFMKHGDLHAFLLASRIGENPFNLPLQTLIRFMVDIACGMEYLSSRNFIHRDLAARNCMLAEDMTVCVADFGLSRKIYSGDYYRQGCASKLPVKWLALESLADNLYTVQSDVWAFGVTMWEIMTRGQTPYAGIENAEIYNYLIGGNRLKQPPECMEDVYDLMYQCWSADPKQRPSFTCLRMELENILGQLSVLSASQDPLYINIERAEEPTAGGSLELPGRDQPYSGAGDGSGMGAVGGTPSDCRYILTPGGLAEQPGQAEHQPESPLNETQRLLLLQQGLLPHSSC
# Transport into cells = type: cell-based
# [4] = molecular target: Breast Tumor Kinase (BRK) (Homo sapiens, UniProt Q13882); assay: Breast Tumor Kinase inhibition (FIG. 5); type: biochemical
# Breast Tumor Kinase (BRK), sequence (Q13882 whole entry, species assumed): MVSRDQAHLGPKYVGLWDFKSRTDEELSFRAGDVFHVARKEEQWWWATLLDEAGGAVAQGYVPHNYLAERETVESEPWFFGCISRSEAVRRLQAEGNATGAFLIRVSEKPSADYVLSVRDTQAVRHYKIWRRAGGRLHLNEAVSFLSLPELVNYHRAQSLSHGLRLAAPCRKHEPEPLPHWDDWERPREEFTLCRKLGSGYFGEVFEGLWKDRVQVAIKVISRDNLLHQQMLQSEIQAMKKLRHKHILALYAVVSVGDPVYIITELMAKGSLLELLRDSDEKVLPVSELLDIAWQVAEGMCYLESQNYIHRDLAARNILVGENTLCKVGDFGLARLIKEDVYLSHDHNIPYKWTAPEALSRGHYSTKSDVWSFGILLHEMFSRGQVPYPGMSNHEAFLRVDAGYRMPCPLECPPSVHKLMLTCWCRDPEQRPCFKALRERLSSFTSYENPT
inhibition of HIPK4 expression (HIPK4 [3]),potency for DDR2 relative to the other VIB-MDA compounds (DDR2 (Tyro10); FIG. 5),"IC50 (DDR2 (Tyro10); FIG. 6B, second most inhibited kinase) [nM]",potency for HIPK4 relative to the other VIB-MDA compounds (HIPK4 [1]; FIG. 5),blocking HIPK4 kinase activity (HIPK4 [1]; FIG. 6),IC50 (HIPK4 [1]; FIG. 6B) [nM],"specificity for HIPK4 compared to Sorafenib (HIPK4 [1]; kinase inhibition profile, FIG. 6A)",potency for Tyro3 relative to the other VIB-MDA compounds (Tyro3),transport into cells (Transport into cells),potency for BRK relative to the other VIB-MDA compounds [4],SMILES,potency and specificity for HIPK4 (HIPK4 [1]),migration from HIPK-overexpression [2],expression of HIPK and FAK/pFAK (HIPK and FAK/pFAK)
Selective inhibition,,,,,,,,,,CNC(=O)c1cc(Oc2ccc(NC(=O)c3nc(SC)[nH]c3-c3ccc(F)cc3)cc2)ccn1 [VIB-MDA-001],extremely potent and highly specific for HIPK4,significantly inhibit,significantly inhibit
Selective inhibition,highest potency,100,highest potency,high efficacy,15,greatly increased specificity,highest potency,excellent transport into cells,highest potency,CNC(=O)c1cc(Oc2ccc(NC(=O)c3nc(SC)oc3-c3ccc(F)cc3)cc2)ccn1 [VIB-MDA-002],extremely potent and highly specific for HIPK4,significantly inhibit,significantly inhibit
Selective inhibition,,,,,,,,,,CNC(=O)c1cc(Oc2ccc(NC(=O)c3nc(S(C)(=O)=O)sc3-c3ccc(F)cc3)cc2)ccn1 [VIB-MDA-003],extremely potent and highly specific for HIPK4,significantly inhibit,significantly inhibit
